Results from patent US20040033483A1, “Cell diagnosing method, and device and apparatus use for it” (priority 2001, published 2004).

Experiments:
[1] = tested on: cancer cells prepared from the fundus of rat stomach; assay: Electrical signal of cells on the cell diagnosis device on applying Carbachol, cancer cells; format: cell-based
Procedure: (§1) A cell diagnosis apparatus comprising the device shown in FIG. 3 as a measuring section (signal source) 101, which has a configuration shown in FIG. 4, was used. Normal cells and cancer cells were prepared as samples from the fundus of rat stomach. The apparatus was used to measure the action of a chemical substance, Carbachol, on these samples.
(§2) Carbachol is a chemical substance known as an analog of the neurotransmitter Acetylcholine. Carbachol (manufactured by Sigma) was dissolved in Krebs Ringer solution to concentrations of 0, 0.1, 0.3, 1, 3 10, 30 and 100 μM. The solutions having these concentrations were used to measure an electrical signal when each solution was applied to the normal cells and the cancer cells derived from the fundus of stomach. For each Carbachol concentration, time-series signal values for 10 seconds were obtained from the measuring section (signal source) 101 comprising the cell diagnosis device shown in FIG. 3, and was sampled at intervals of 100 msec to obtain time-series data, and the standard deviation of the sampling data was calculated. The average of the standard deviation was plotted in FIG. 8. In FIG. 8, black circles indicate results obtained from cells including cancer cells and white circles indicate results obtain from normal cells.
The apparatus having the configuration shown in FIG. 5, which comprises the device shown in FIG. 3 as a measuring section (signal source), was used to measure the action of Carbachol on samples, where the samples were normal cells and cells including cancer cells prepared from the fundus of rat stomach, as in Example 1.
(§3) Before and after 50 μM-concentration Carbachol was applied to the normal cells and the cancer cells prepared from the fundus of rat stomach, signals were obtained from the measuring section (signal source) 101, and the standard deviation of the signals was calculated in a manner similar to that of Example 1.

[2] = tested on: normal cells prepared from the fundus of rat stomach; assay: Electrical signal of cells on the cell diagnosis device on applying Carbachol, normal cells; format: cell-based
Procedure: as §1
as §2, with “The average of the standard deviation was plotted in FIG. 8. In FIG. 8, black circles indicate results obtained from cells including cancer cells and white circles indicate results obtain from normal cells.” left out
as §3

[3] = 50 μM Carbachol, before versus after application, 10 seconds, FIG. 9
[4] = Carbachol 0, 0.1, 0.3, 1, 3, 10, 30 and 100 μM in Krebs Ringer solution, 10 seconds signal, FIG. 8

With `C[N+](C)(C)CCOC(N)=O` [Carbachol] the “average and half-width of the normal distribution of standard deviations compared with the normal cell” value ([1]; 50 μM Carbachol, FIG. 9) was “larger average and half-width values than those of the normal cell”, the “average of the standard deviation every 5 msec after applying Carbachol” value [1, 3] was “increased” and the “average of the standard deviation of the electrical signal at 100 msec intervals” value [1, 4] was “the higher the Carbachol concentration, the higher the average of the standard deviation”. For the same compound, the “average of the standard deviation every 5 msec after applying Carbachol” value [2, 3] was “increased” and the “average of the standard deviation of the electrical signal at 100 msec intervals” value [2, 4] was “the higher the Carbachol concentration, the higher the average of the standard deviation”.
